Experimental data taken from US4530932A, “4-(1H-indol-3-yl)-α-methyl-piperidine-1-ethanol derivatives” (Roussel Uclaf, priority 1982, dated 1985).
Counter-ions that a name gives are not always drawn. Like-named read-outs stand apart in the source and are kept apart here.

Key:
[1] = tested on: cardiac rhythm troubles in guinea pigs; assay: Antiarythmic action (K-strophanthine and adrenaline induced cardiac rhythm troubles); assay type: in vivo, guinea pig; settings: Cavia porcellus, 1 h, oral 10 mg/kg, one hour before K-strophanthine and adrenaline perfusion, read-out: Percentage of protection (lengthening of the time of appearance of cardiac rhythm troubles as compared to controls)
Procedure: Male guinea pigs weighing between 450 and 500 g were tracheotomized while anesthesized by intraperitoneal administration of […] of urethane and were subjected to artifical respiration of 40 to 50 breaths of 5 ml per minute. Needles were subcutaneously implanted to register an electrocardiogram of the guinea pigs for the signal of D II derivation. The test products were orally administered and one hour later, the jugular vein of the guinea pigs were perfused with 0.5 ml per minute of a solution of 150 γ/ml of K-strophanthine and 0.5 ml per minute of a solution of 5 γ/ml of adrenaline and the number of times of the appearance of cardiac rhythm troubles was noted. The results are expressed in percentage of protection with an oral dose of 10 mg/kg of test product that is to say the percentage of lengthening of the time of appearance of cardiac rhythm troubles as compared to the controls.

[2] = tested on: Rat arteries (arterial contractions, entry of calcium ions into the cells of smooth muscles); assay: In vitro anticalcic activity (inhibition of potassium-depolarized, calcium-induced contractions of isolated rat arteries); assay type: cell-based; settings: dose inhibiting by 50% the contractions caused by potassium ions (100 mM), 37° C., read-out: CI50 (the source's name)
Procedure: Rat arteries decoupled in a spiral were attached to a tension collector and were maintained in tanks containing 2.5 ml of Krebs-sodium bicarbonate buffer (NaCl: 120.8 mM, KCl: 5.9 mM, MgCl2 : 1.2 mM, NaH2 PO4 : 1.2 mM, NaHCO3 : 15.5 mM, glucose: 12.6 mM), at 37° C. covered with a 95%-5% oxygen-carbon dioxide mixture. The preparations were depolarized with a buffered solution containing 100 mM of potassium ions (NaCl: 26.7 mM, KCl: 100 mM, MgCl2 : 1.2 mM, NaH2 PO4 : 1.2 mM, NaHCO3 : 15.5 mM, glucose 12.6 mM).
A volume of 25 μl of calcium chloride was added to the mixture in a manner to obtain a range of increasing concentrations of calcium ions from 0.1 to 3.0 mM and the contractions of the artery were measured to obtain a control. The operation with range of calcium ions was repeated every 15 minutes and the preparation was washed 4 times after each range. When a stable response was obtained, the operation with the range of calcium ions was effected in the presence of varying concentrations of test compounds until a stable response was obtained.
The arterial contractions depend on the entry of calcium ions into the cells of smooth muscles and are provoked by depolarization of smooth muscles by potassium ions and by action of noradrenaline freed by presynapthic level. By recommencing the operation with denerved arteries by the action of 6-hydroxy-dopamine, the specific action due to noradrenaline is suppressed.

[3] = tested on: mice; assay: Acute toxicity (DL0, oral); assay type: in vivo, mouse; design: unit not given here
[4] = tested on: carotidien arterial pressure in rats; assay: Hypotensive activity (carotidien arterial pressure in anesthesized rats); assay type: in vivo, rat (Wistar); settings: rat, intravenous
Procedure: The hypotensive activity was studied on male rats of the Wistar strain weighing about 300 g and anesthesized with 50 mg/kg of nembutal intraveinously. The test products were administered intraveinously by the jugular vein and the carotidien arterial pressure was measured before and after administration of the test compounds. The variations expressed in percentage of arterial pressure after administration with respect to the initial pressure is reported in Table IV.

[5] = 1 min, 1 minute, read-out: % Variation of arterial pressure after administration, 1 minute
[6] = 5 min, 5 minutes, read-out: % Variation of arterial pressure after administration, 5 minutes
[7] = 10 min, 10 minutes, read-out: % Variation of arterial pressure after administration, 10 minutes
[8] = 0.5 h, 30 minutes, read-out: % Variation of arterial pressure after administration, 30 minutes

| Structure (SMILES) | change in vivo at 10 mg/kg [1] | IC50 [2] | DL0 (maximum dose which did not cause any deaths after 8 days) [3] | change in vivo at 1 mg/kg [4, 5] | change in vivo at 1 mg/kg [4, 6] | change in vivo at 1 mg/kg [4, 7] | change in vivo at 1 mg/kg [4, 8] |
| --- | --- | --- | --- | --- | --- | --- | --- |
| OC(COc1ccccc1)CN1CCC(c2c[nH]c3ccccc23)CC1 (stereo not drawn) [Example 3, 4-(1H--indol-3-yl)-α-[phenoxymethyl]-piperidine-1-ethanol hydrochloride] | 55% | 2500 nM |  |  |  |  |  |
| COc1ccccc1OCC(O)CN1CCC(c2c[nH]c3ccccc23)CC1 (stereo not drawn) [Example 14, 4-(1H--indol-3-yl)-α-[2-methoxyphenoxymethyl]-piperidine-1-ethanol hydrochloride] | 83% | 11000 nM | > 100 |  |  |  |  |
| Cc1cccc(OCC(O)CN2CCC(c3c[nH]c4ccccc34)CC2)c1 (stereo not drawn) [Example 18, 4-(1H--indol-3-yl)-α-[3-methylphenoxymethyl]-piperidine-1-ethanol hydrochloride] | 23% | 2000 nM | > 100 |  |  |  |  |
| Nc1ccccc1OCC(O)CN1CCC(c2c[nH]c3ccccc23)CC1 (stereo not drawn) [Example 19, 4-(1H--indol-3-yl)-α-[2-amino-phenoxymethyl]-piperidine-1-ethanol fumarate] | 165% |  | > 100 |  |  |  |  |
| COc1cccc(OCC(O)CN2CCC(c3c[nH]c4ccccc34)CC2)c1 (stereo not drawn) [Example 23, 4-(1H--indol-3-yl)-α-[3-methoxyphenoxymethyl]-piperidine-1-ethanol hydrochloride] | 73% | 2700 nM | > 200 | -7% | -19% | 14% | -17% |
| C=CCOc1ccccc1OCC(O)CN1CC=C(c2c[nH]c3ccccc23)CC1 (stereo not drawn) [Example 24, 4-(1H--indol-3-yl)-α-[2-prop-2-enyloxy)-phenoxymethyl]-1,2,3,6,tetrahydropyridine-1-ethanol fumarate] |  | 700 nM | > 200 | -10% | -16% | -11% | -17% |
| C=CCOc1ccc(OCC(O)CN2CCC(c3c[nH]c4ccccc34)CC2)cc1 (stereo not drawn) [Example 26, 4-(1H--indol-3-yl)-α-[4-prop-2-enyloxy)-phenoxymethyl]-piperidine-1-ethanol hydrochloride] | 68% | 1500 nM | > 200 |  |  |  |  |
| COc1ccc(OCC(O)CN2CCC(c3c[nH]c4ccccc34)CC2)cc1OC (stereo not drawn) [Example 27, 4-(1H--indol-3-yl)-α-[3,4-dimethoxyphenoxymethyl]-piperidine-1-ethanol hydrochloride] | 115% |  | 80 |  |  |  |  |
| OC(COc1ccc(Cl)c(Cl)c1)CN1CCC(c2c[nH]c3ccccc23)CC1 (stereo not drawn) [Example 29, 4-(1H--indol-3-yl)-α-[3,4-dichlorophenoxymethyl]-piperidine-1-ethanol hydrochloride] | 53% | 2400 nM | > 100 |  |  |  |  |
| Oc1cccc(OCC(O)CN2CCC(c3c[nH]c4ccccc34)CC2)c1 (stereo not drawn) [Example 30, 4-(1H--indol-3-yl)-α-[3-hydroxyphenoxymethyl]-piperidine-1-ethanol hydrochloride] | 86% |  | > 100 |  |  |  |  |
| C=CCOc1ccccc1OCC(O)CN1CCC(c2cn(C)c3ccccc23)CC1 (stereo not drawn) [Example 31, 4-(1-methyl-1H--indol-3-yl)-α-[2-(prop-2-enyloxy)-phenoxymethyl]-piperidine-1-ethanol fumarate] | 49% | 3000 nM |  |  |  |  |  |
| C=CCOc1ccccc1OCC(O)CN1CCC(c2c[nH]c3ccc(OC)cc23)CC1 (stereo not drawn) [Example 32, 4-(5-methoxy-1H--indol-3-yl)-α -2-(prop-2-enyloxy)-phenoxymethyl]-piperidine-1-ethanol fumarate] | 20% | 1900 nM |  |  |  |  |  |
